Experimental data published in patent US10472664B2, “Screening assay for identification of poly(ADP-ribose) polymerase 1 inhibitors” (Institute for Cancer Research, priority 2014, dated 2019).

System: PARP-1
Test: PARP-1 regulation by purified histones in vitro, pADPr detected on Western blot
Format: biochemical
Conditions: PARP-1 pre-incubated with purified histone, then mixed with NAD; FIG. 2A, 2B
Procedure: FIGS. 2A-D show PARP-1 protein regulation by histones (poly(ADP-ribose) polymer is denoted “pADPr”). […] Full-length PARP-1 protein (left) and PARP-1 protein cleaved by Caspase 3 (right) were pre-incubated with randomly broken DNA or core histone H4, followed by mixing with NAD. The products of PARP-1 enzymatic activity, poly(ADP-ribose), were detected after PAGE on a Western blot using the anti-pADPr antibody. […] PARP-1 was pre-incubated with different coregulators, followed by mixing with NAD. The amount of the product of PARP-1 enzymatic activity, poly(ADP-ribose), was detected after PAGE on a Western blot using the anti-Change(s) pADPr antibody and quantified independently using the Image Quant.
The two pathways described in Example 1 can be separated in vitro by cleaving Zn-fingers from the PARP-1 protein using caspase 3. This isoform of PARP-1 can be still activated by H4, but not by DNA (FIG. 2, panel A). […] Although histones H2Av and H2AvSE inhibit PARP-1 by themselves, when contained inside of a nucleosome they facilitate PARP-1 interaction with H4 and thereby activate PARP-1 (FIG. 2 panel D). […] Without intending to be limited to any particular theory or mechanism of action, it is believed that interactions with histones play an important for PARP-1 activation in vivo in genotoxic stress response and in transcriptional pathways.

H2Av: purified histone variant H2Av
PARP-1 activation (poly(ADP-ribose) production): does not activate PARP-1
